Measurements taken from PubChem BioAssay (NCI).
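Briefly, cells in 96-well plates were exposed to five compound concentrations for 48 h, and endpoints were estimated by linear interpolation. The concentration for 50% growth inhibition is given as GI50. TGI: concentration producing complete growth inhibition.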

How the values were obtained:
Experiment in all cases: NCI-60 cell line screen, 48 h
SF-295 CNS = test system: SF-295 CNS
COLO 205 colon = test system: COLO 205 colon
SF-539 CNS = test system: SF-539 CNS
MDA-MB-231 breast = test system: MDA-MB-231 breast
MCF7 breast = test system: MCF7 breast
HCT-116 colon = test system: HCT-116 colon
SW-620 colon = test system: SW-620 colon
OVCAR-4 ovarian = test system: OVCAR-4 ovarian
PC-3 prostate = test system: PC-3 prostate
HCT-15 colon = test system: HCT-15 colon
HCC-2998 colon = test system: HCC-2998 colon
RPMI-8226 leukemia = test system: RPMI-8226 leukemia
NCI/ADR-RES ovarian = test system: NCI/ADR-RES ovarian
SR leukemia = test system: SR leukemia
786-0 renal = test system: 786-0 renal
NCI-H23 lung = test system: NCI-H23 lung
IGROV1 ovarian = test system: IGROV1 ovarian
HS 578T breast = test system: HS 578T breast
EKVX NSCLC = test system: EKVX NSCLC
OVCAR-5 ovarian = test system: OVCAR-5 ovarian
HOP-92 NSCLC = test system: HOP-92 NSCLC
BT-549 breast = test system: BT-549 breast
DU-145 prostate = test system: DU-145 prostate
NCI-H460 lung = test system: NCI-H460 lung
LOX IMVI melanoma = test system: LOX IMVI melanoma
CAKI-1 renal = test system: CAKI-1 renal
MALME-3M melanoma = test system: MALME-3M melanoma
K-562 leukemia = test system: K-562 leukemia
M14 melanoma = test system: M14 melanoma
OVCAR-3 ovarian = test system: OVCAR-3 ovarian
T-47D breast = test system: T-47D breast
SK-MEL-28 melanoma = test system: SK-MEL-28 melanoma
UACC-257 melanoma = test system: UACC-257 melanoma
RXF 393 renal = test system: RXF 393 renal
OVCAR-8 ovarian = test system: OVCAR-8 ovarian
TK-10 renal = test system: TK-10 renal
MDA-MB-435 = test system: MDA-MB-435
SNB-75 CNS = test system: SNB-75 CNS
CCRF-CEM leukemia = test system: CCRF-CEM leukemia
SNB-19 CNS = test system: SNB-19 CNS
A498 renal = test system: A498 renal
SF-268 CNS = test system: SF-268 CNS
NCI-H522 lung = test system: NCI-H522 lung
U251 CNS = test system: U251 CNS
SK-OV-3 ovarian = test system: SK-OV-3 ovarian
SK-MEL-2 melanoma = test system: SK-MEL-2 melanoma
SK-MEL-5 melanoma = test system: SK-MEL-5 melanoma
ACHN renal = test system: ACHN renal
SN12C renal = test system: SN12C renal
UO-31 renal = test system: UO-31 renal
KM12 colon = test system: KM12 colon
HL-60(TB) leukemia = test system: HL-60(TB) leukemia
HT29 colon = test system: HT29 colon
NCI-H226 lung = test system: NCI-H226 lung
MOLT-4 leukemia = test system: MOLT-4 leukemia
A549 NSCLC = test system: A549 NSCLC
HOP-62 NSCLC = test system: HOP-62 NSCLC
UACC-62 melanoma = test system: UACC-62 melanoma

COc1cc2c3c(cc4c5c(ccc4c3c1OC)OCO5)N(CCN(C)C)C2=O
GI50 (SF-295 CNS): 33.5 nM | TGI (SF-295 CNS): 229 nM | GI50 (COLO 205 colon): 116 nM | TGI (COLO 205 colon): 935 nM | GI50 (SF-539 CNS): 110 nM | TGI (SF-539 CNS): 411 nM | GI50 (MDA-MB-231 breast): 249 nM | TGI (MDA-MB-231 breast): 1610 nM | GI50 (MCF7 breast): 32.2 nM | TGI (MCF7 breast): 579 nM | GI50 (HCT-116 colon): 42.9 nM | TGI (HCT-116 colon): 422 nM | GI50 (SW-620 colon): 36.3 nM | TGI (SW-620 colon): 1330 nM | GI50 (OVCAR-4 ovarian): 309 nM | TGI (OVCAR-4 ovarian): 7840 nM | GI50 (PC-3 prostate): 157 nM | TGI (PC-3 prostate): 4440 nM | GI50 (HCT-15 colon): 34 nM | TGI (HCT-15 colon): 605 nM | GI50 (HCC-2998 colon): 85.8 nM | TGI (HCC-2998 colon): 295 nM | GI50 (RPMI-8226 leukemia): 43.7 nM | TGI (RPMI-8226 leukemia): 517 nM | GI50 (NCI/ADR-RES ovarian): 68.5 nM | TGI (NCI/ADR-RES ovarian): 675 nM | GI50 (SR leukemia): 22.5 nM | GI50 (786-0 renal): 35 nM | TGI (786-0 renal): 654 nM | GI50 (NCI-H23 lung): 53.8 nM | TGI (NCI-H23 lung): 339 nM | GI50 (IGROV1 ovarian): 47.2 nM | TGI (IGROV1 ovarian): 501 nM | GI50 (HS 578T breast): 190 nM | TGI (HS 578T breast): 1280 nM | GI50 (EKVX NSCLC): 104 nM | TGI (EKVX NSCLC): 669 nM | GI50 (OVCAR-5 ovarian): 133 nM | TGI (OVCAR-5 ovarian): 907 nM | GI50 (HOP-92 NSCLC): 60.9 nM | TGI (HOP-92 NSCLC): 561 nM | GI50 (BT-549 breast): 234 nM | TGI (BT-549 breast): 1530 nM | GI50 (DU-145 prostate): 35.4 nM | TGI (DU-145 prostate): 490 nM | GI50 (NCI-H460 lung): 17.6 nM | TGI (NCI-H460 lung): 147 nM | TGI (LOX IMVI melanoma): 49.6 nM | GI50 (CAKI-1 renal): 39.3 nM | TGI (CAKI-1 renal): 261 nM | GI50 (MALME-3M melanoma): 64.2 nM | TGI (MALME-3M melanoma): 258 nM | GI50 (K-562 leukemia): 50 nM | GI50 (M14 melanoma): 46.6 nM | TGI (M14 melanoma): 400 nM | GI50 (OVCAR-3 ovarian): 199 nM | TGI (OVCAR-3 ovarian): 1140 nM | GI50 (T-47D breast): 64.9 nM | TGI (T-47D breast): 3050 nM | GI50 (SK-MEL-28 melanoma): 182 nM | TGI (SK-MEL-28 melanoma): 676 nM | GI50 (UACC-257 melanoma): 166 nM | TGI (UACC-257 melanoma): 596 nM | GI50 (RXF 393 renal): 89.4 nM | TGI (RXF 393 renal): 264 nM | GI50 (OVCAR-8 ovarian): 59.6 nM | TGI (OVCAR-8 ovarian): 5980 nM | GI50 (TK-10 renal): 170 nM | TGI (TK-10 renal): 702 nM | GI50 (MDA-MB-435): 170 nM | TGI (MDA-MB-435): 615 nM | GI50 (SNB-75 CNS): 71.1 nM | TGI (SNB-75 CNS): 583 nM | GI50 (CCRF-CEM leukemia): 28.1 nM | TGI (CCRF-CEM leukemia): 9640 nM | GI50 (SNB-19 CNS): 38.9 nM | TGI (SNB-19 CNS): 2610 nM | GI50 (A498 renal): 77.6 nM | TGI (A498 renal): 299 nM | GI50 (SF-268 CNS): 104 nM | TGI (SF-268 CNS): 1040 nM | GI50 (NCI-H522 lung): 101 nM | TGI (NCI-H522 lung): 599 nM | GI50 (U251 CNS): 38.9 nM | TGI (U251 CNS): 1430 nM | GI50 (SK-OV-3 ovarian): 74.6 nM | TGI (SK-OV-3 ovarian): 600 nM | GI50 (SK-MEL-2 melanoma): 313 nM | TGI (SK-MEL-2 melanoma): 804 nM | GI50 (SK-MEL-5 melanoma): 92.4 nM | TGI (SK-MEL-5 melanoma): 225 nM | GI50 (ACHN renal): 21.5 nM | TGI (ACHN renal): 81.2 nM | GI50 (SN12C renal): 31.8 nM | TGI (SN12C renal): 378 nM | GI50 (UO-31 renal): 34.3 nM | TGI (UO-31 renal): 201 nM | GI50 (KM12 colon): 196 nM | TGI (KM12 colon): 11700 nM | GI50 (HL-60(TB) leukemia): 22.6 nM | TGI (HL-60(TB) leukemia): 118 nM | GI50 (HT29 colon): 87.1 nM | TGI (HT29 colon): 1260 nM | GI50 (NCI-H226 lung): 69.6 nM | TGI (NCI-H226 lung): 344 nM | GI50 (MOLT-4 leukemia): 23.6 nM | TGI (MOLT-4 leukemia): 1410 nM | GI50 (A549 NSCLC): 13.3 nM | TGI (A549 NSCLC): 385 nM | GI50 (HOP-62 NSCLC): 35.9 nM | TGI (HOP-62 NSCLC): 1620 nM | GI50 (UACC-62 melanoma): 56.7 nM | TGI (UACC-62 melanoma): 229 nM
